From US20230355599A1, “BIOMARKERS FOR CBL, AND COMPOSITIONS AND METHODS FOR THEIR USE” (NURIX THERAPEUTICS, INC., priority 2022, published 2023)

Assays:
Assay type in all cases: cell-based
phosphorylated HS1 = assay: Phosphorylated HS1 in cynomolgus macaque CD8+ T cells from whole blood in vitro (flow cytometry); settings: Macaca fascicularis, T-cell, whole blood from six cynomolgus macaques, 2 hrs 37° C., 2 μg/mL anti-CD3 & anti-CD28 + crosslinker 60 minutes, read-out: Average mean EC50±standard deviation, phosphorylated HS1
Procedure: To assess these candidate clinical proximal biomarkers of Cbl-b inhibition on T cells, pharmacodynamic analysis was performed. Whole blood was obtained from cynomolgus macaque donors, then incubated with increasing concentrations of Compound 23. The response to Cbl-b inhibition on phosphorylated HS1, ZAP70 and PLCγ2 was measured in CD8^+ T cells using flow cytometry. This technique is highly quantitative and can measure multiple phosphorylation markers in different cell populations within the same sample.
DMSO (Dimethyl sulfoxide) was used to reconstitute Compound 23. Final concentration of DMSO was 0.05% in media for in vitro assays. […]
Stained cells were run on an Attune NxT Acoustic Focusing Flow Cytometer (Thermo Fisher, cat. No. A29004), and data was analyzed using FlowJo (v10.6.1) and GraphPad Prism (v8.00) software. Single lymphocytes were gated for CD8^+ cells (CD45^+/CD8^+) cells, and population frequencies were calculated for each population. The data is quantified by the percent positive. […] As protein becomes phosphorylated the fluorescence increases resulting in a larger fraction of the cells entering that gate. Each population was evaluated for % positive pY759-PLCγ2, pY397-HS1 levels, pY319/Syk (Y352)-ZAP70 levels.

pY525/pY526/pY348-SYK = assay: Phosphoprotein screen in human whole blood with CBL inhibitor at 10 uM: SYK; settings: 1 hr 37° C., human whole blood 8 donors, anti-CD3/CD28 + crosslinker 60 minutes
Procedure: (§1) To identify proximal biomarkers of CBL-B inhibition in immune cells, a panel of phosphorylated proteins were screened in human whole blood incubated with CBL-B inhibitor and concomitant anti-CD3 and anti-CD28 antibodies. The effect of CBL-B inhibition was assessed across multiple cellular signaling networks.
(§2) Human heparinized whole blood from 8 donors was received after an overnight shipment at 4° C. The blood was plated, treated with CBL inhibitor at 10 uM and incubated at 37° C. for 60 minutes. After incubation, the cells were stimulated with anti-CD3/CD28 followed by a cross-linking antibody (30 μg of goat anti-mouse IgG (H+L) antibody (Invitrogen)). After 60 minutes, the cells were fixed, and stained using surface markers for T cells (CD3^+CD4^+& CD3^+CD8^+) and analyzed by flow cytometry for target phosphorylation of the following markers: pY180/pY511-ITK, pY397-HS1, pY759-PLCg2, pY783-PLCg1, pY525/pY526/pY348-SYK & pY319-Zap70.
(§3) Fold change of each biomarker was calculated with the following example equation: […]
(§4) Whole blood from eight human donors was collected in sodium heparin anti-coagulant treated with 10 μM of Compound 23 for 1 hr at 37° C. […] Fold change of % phosphorylation normalized to DMSO was quantitated in T cells (CD8^+) using flow cytometry is provided in FIGS. 6A-6B.

pY397-HS1 = assay: Phosphoprotein screen in human whole blood with CBL inhibitor at 10 uM: HS1; settings: 1 hr 37° C., human whole blood 8 donors, anti-CD3/CD28 + crosslinker 60 minutes
Procedure: as §1, §2, §3, §4

pY759-PLCg2 = assay: Phosphoprotein screen in human whole blood with CBL inhibitor at 10 uM: PLCγ2; settings: 1 hr 37° C., human whole blood 8 donors, anti-CD3/CD28 + crosslinker 60 minutes
Procedure: as §1, §2, §3, §4

C[C@H]1CCCN(Cc2cc3c(c(C(F)(F)F)c2)CN(c2cccc([C@]4(c5nncn5C)C[C@@H](C)C4)c2)C3=O)C1 [Compound 23]
EC50 (phosphorylated HS1): 230 ± 150 nM | increased phosphorylation of SYK compared to DMSO control (pY525/pY526/pY348-SYK): 2-3 fold | increased phosphorylation of HS1 compared to DMSO control (pY397-HS1): 3-4 fold | increased phosphorylation of PLCγ2 compared to DMSO control (pY759-PLCg2): 3-4 fold
